Reference: patent publication US5795885A, “Method of inhibiting profileration of cells by administering an aminosterol compound” (priority 1995, dated 1998)

What was measured:
B16 melanoma = B16 melanoma growth in C57B mice; format: in vivo, mouse
Protocol: The growth of B16 melanoma in C57B mice is dependent upon neovascularization.
Using the growth of B16 melanoma cells in C57B mice, a recognized model for the evaluation of inhibitors of angiogenesis on the growth of cancers, the effects of subcutaneous, intraperitoneal and oral administration of squalamine were evaluated.
Based on the idea that tumor growth involves both the clonal expansion of a malignant cell along with the development of a supporting vascular supply, a combination of compound 1436 with squalamine was tested to determine whether it would achieve a synergistic effect on solid tumor growth. This concept was evaluated in the B16 melanoma model.
Animals were implanted with B16 melanoma followed by treatment with compound 1436 or 1256 administered in a combined schedule or separately. […] Thus, a combination of these two compounds achieves a therapeutic benefit in tumors dependent on neovascularization that may prevent metastatic spread.

[1] = tested on: stage 59-60 Xenopus tadpoles; settings: 10 μg/ml in water
[2] = tested on: human microvascular cells; assay: endothelial cell cord formation in vitro; format: cell-based
From the text: Endothelial cells have the capacity in vitro to form tubular aggregates resembling capillaries in various early stages of formation. This conversion occurs under relatively specific conditions, in which essential growth factors along with an effective substratum are provided. It has been shown that both the interaction of growth factors with the endothelial cell and its attachment to a substratum activate the NHE. The activation of this exchanger is believed to be required for subsequent morphologic transformation of the endothelial cell into a multicellular tubular structure.
To assess the effect of compounds on the cord-like structures formed by human microvascular cells when plated in the presence of VEGF (Vascular Endothelial Growth Factor) and basic fibroblast growth factor on a collagen matrix, a standard cord formation assay was used.

CC(C)[C@@H](CC[C@@H](C)[C@H]1CC[C@H]2[C@@H]3[C@H](O)C[C@H]4C[C@@H](NCCCNCCCCN)CC[C@]4(C)[C@H]3CC[C@]12C)OS(=O)(=O)O [Squalamine, squalamine]
suppression of tumor volume (B16 melanoma; intraperitoneal): a dose-dependent suppression of tumor volume was observed
suppression of tumor volume (B16 melanoma; oral): a dose-dependent suppression of tumor volume was observed
body weight and hematologic parameters (B16 melanoma; s.c., i.p. or oral treatment): no significant depression
tumor growth, single agent (B16 melanoma; squalamine 15 mg/kg/day, compound 1436 alone in a tolerable schedule): Neither administration of squalamine at 15 mg/kg/day nor compound 1436 alone in a tolerable schedule could achieve this effect
impact on tumor volume (B16 melanoma; squalamine alone 5 mg/kg/day): no significant impact on tumor volume
suppression of tumor volume (B16 melanoma; subcutaneous): a dose-dependent suppression of tumor volume was observed
time to death of tadpole [1]: ≤ 2 h
pharmacological response in tadpole ([1]; listed as Compound 1256 (Squalamine)): Vascular occlusion in fine capillaries of tail. No effect on vascular flow through hands or feet.
effect on endothelial cord formation ([2]; 0.01 μg/ml): -
effect on endothelial cord formation ([2]; 0.1 μg/ml): +
effect on endothelial cord formation ([2]; 1.0 μg/ml): +
effect on endothelial cord formation ([2]; 10.0 μg/ml): +
cell viability or proliferation ([2]; at these concentrations): does not appear to profoundly affect cell viability or proliferation
